Measurements published in patent US9943529B2, “Methods for reducing cellular proliferation and treating certain diseases” (BRIGHAM YOUNG UNIVERSITY, priority 2013, dated 2018).

What was measured:
[1] = tested on: SW-620; assay: NCI screen antiproliferative activity, sulforhodamine B, Colon Cancer panel; assay type: cell-based, human; conditions: 48 hours, five 10-fold dilutions starting from 100 μM
[2] = tested on: MDA-MB-435; assay: cells; conditions: Homo sapiens, MDA-MB-435, 48 h
[3] = tested on: NCI-H460; assay: cells; conditions: Homo sapiens, NCI-H460, 48 h
[4] = tested on: OVCAR-4; conditions: 48 hours, five 10-fold dilutions starting from 100 μM
[5] = tested on: RPMI-8226; assay: NCI screen antiproliferative activity, sulforhodamine B, Leukemia panel; assay type: cell-based, human; conditions: 48 hours, five 10-fold dilutions starting from 100 μM
[6] = tested on: UACC-62; conditions: 48 hours, five 10-fold dilutions starting from 100 μM
[7] = tested on: PC-3; conditions: 48 hours, five 10-fold dilutions starting from 100 μM
[8] = tested on: ACHN; assay: cells; conditions: Homo sapiens, 48 h
[9] = tested on: OVCAR-3; assay: cells; conditions: Homo sapiens, OVCAR-3, 48 h
[10] = tested on: IGROV1; conditions: 48 hours, five 10-fold dilutions starting from 100 μM
[11] = tested on: BT-549; conditions: 48 hours, five 10-fold dilutions starting from 100 μM
[12] = tested on: SK-MEL-28; assay: cells; conditions: Homo sapiens, SK-MEL-28, 48 h
[13] = tested on: OVCAR-8; conditions: 48 hours, five 10-fold dilutions starting from 100 μM
[14] = tested on: MDA-MB-231/ATCC; conditions: 48 hours, five 10-fold dilutions starting from 100 μM
[15] = tested on: MCF7; assay: cells; conditions: Homo sapiens, MCF7, 48 h
[16] = tested on: SK-OV-3; conditions: 48 hours, five 10-fold dilutions starting from 100 μM
[17] = tested on: CAKI-1; assay: cells; conditions: Homo sapiens, CAKI-1, 48 h
[18] = tested on: UACC-62; assay: cells; conditions: Homo sapiens, UACC-62, 48 h
[19] = tested on: NCI-H460; conditions: 48 hours, five 10-fold dilutions starting from 100 μM
[20] = tested on: MALME-3M; assay: NCI screen antiproliferative activity, sulforhodamine B, Melanoma panel; assay type: cell-based, human; conditions: 48 hours, five 10-fold dilutions starting from 100 μM
[21] = tested on: HCC-2998; assay: cells; conditions: Homo sapiens, HCC 2998, 48 h
[22] = tested on: SN12C; assay: cells; conditions: Homo sapiens, 48 h
[23] = tested on: KM12; assay: NCI screen antiproliferative activity, sulforhodamine B, Colon Cancer panel; assay type: cell-based, human; conditions: 48 hours, five 10-fold dilutions starting from 100 μM
[24] = tested on: UO-31; assay: cells; conditions: Homo sapiens, UO-31, 48 h
[25] = tested on: SF-539; assay: cells; conditions: Homo sapiens, SF-539, 48 h
[26] = tested on: EKVX; assay: cells; conditions: Homo sapiens, 48 h
[27] = tested on: HOP-92; conditions: 48 hours, five 10-fold dilutions starting from 100 μM
[28] = tested on: SF-539; conditions: 48 hours, five 10-fold dilutions starting from 100 μM
[29] = tested on: MCF7; conditions: 48 hours, five 10-fold dilutions starting from 100 μM
[30] = tested on: NCI-H23; conditions: 48 hours, five 10-fold dilutions starting from 100 μM
[31] = tested on: A549/ATCC; assay: cells; conditions: Homo sapiens, A549, 48 h
[32] = tested on: EKVX; conditions: 48 hours, five 10-fold dilutions starting from 100 μM
[33] = tested on: NCI-H23; assay: cells; conditions: Homo sapiens, NCI-H23, 48 h
[34] = tested on: SNB-75; conditions: 48 hours, five 10-fold dilutions starting from 100 μM
[35] = tested on: ACHN; conditions: 48 hours, five 10-fold dilutions starting from 100 μM
[36] = tested on: 786-0; conditions: 48 hours, five 10-fold dilutions starting from 100 μM
[37] = tested on: HCT-116; assay: cells; conditions: Homo sapiens, HCT-116, 48 h
[38] = tested on: NCI-H226; assay: cells; conditions: Homo sapiens, NCI-H226, 48 h
[39] = tested on: RXF 393; conditions: 48 hours, five 10-fold dilutions starting from 100 μM
[40] = tested on: T-47D; assay: cells; conditions: Homo sapiens, T47D, 48 h
[41] = tested on: HOP-62; conditions: 48 hours, five 10-fold dilutions starting from 100 μM
[42] = tested on: NCI-H322M; conditions: 48 hours, five 10-fold dilutions starting from 100 μM
[43] = tested on: SK-MEL-2; conditions: 48 hours, five 10-fold dilutions starting from 100 μM
[44] = tested on: SK-MEL-5; assay: NCI screen antiproliferative activity, sulforhodamine B, Melanoma panel; assay type: cell-based, human; conditions: 48 hours, five 10-fold dilutions starting from 100 μM
[45] = tested on: HS 578T; assay: NCI screen antiproliferative activity, sulforhodamine B, Breast Cancer panel; assay type: cell-based, human; conditions: 48 hours, five 10-fold dilutions starting from 100 μM

CCCCCCCCNCCC[C@@H](C)[C@H]1CC[C@H]2[C@@H]3[C@H](OCCCN)C[C@@H]4C[C@H](OCCCN)CC[C@]4(C)[C@H]3C[C@H](OCCCN)[C@]12C [CSA-13]
TGI [1]: 2.67 µM
GI50 ([1]; Homo sapiens): 1.16 µM
GI50 [2]: 0.318 µM
CC50 ([2]; read-out: LC50): 5.68 µM
GI50 [3]: 1.21 µM
CC50 ([3]; read-out: LC50): 15.5 µM
TGI [4]: 25.2 µM
TGI [5]: 0.911 µM
GI50 ([5]; Homo sapiens): 0.266 µM
TGI [6]: 2.29 µM
TGI [7]: >100 µM
GI50 [8]: 1.48 µM
CC50 ([8]; read-out: LC50): 9.17 µM
GI50 [9]: 2.24 µM
CC50 ([9]; read-out: LC50): 88 µM
TGI [10]: 3.54 µM
TGI [11]: 3.28 µM
GI50 [12]: 0.291 µM
CC50 ([12]; read-out: LC50): 5.46 µM
TGI [13]: 4.01 µM
TGI [14]: 4.08 µM
GI50 [15]: 1.63 µM
CC50 ([15]; read-out: LC50): 5.85 µM
TGI [16]: 16.3 µM
GI50 [17]: 2.05 µM
CC50 ([17]; read-out: LC50): 68 µM
GI50 [18]: 0.482 µM
CC50 ([18]; read-out: LC50): 9.43 µM
TGI [19]: 3.92 µM
TGI [20]: 3.88 µM
GI50 ([20]; Homo sapiens): 1.76 µM
GI50 [21]: 1.51 µM
CC50 ([21]; read-out: LC50): 13.3 µM
GI50 [22]: 0.571 µM
CC50 ([22]; read-out: LC50): 27 µM
TGI [23]: 2.76 µM
GI50 ([23]; Homo sapiens): 0.586 µM
GI50 [24]: 1.49 µM
CC50 ([24]; read-out: LC50): > 100 µM
GI50 [25]: 0.318 µM
CC50 ([25]; read-out: LC50): 4.89 µM
GI50 [26]: 1.32 µM
CC50 ([26]; read-out: LC50): 8.62 µM
TGI [27]: 21.2 µM
TGI [28]: 1.41 µM
TGI [29]: 3.09 µM
TGI [30]: 3.12 µM
GI50 [31]: 2.01 µM
CC50 ([31]; read-out: LC50): 45.9 µM
TGI [32]: 3.38 µM
GI50 [33]: 1.24 µM
CC50 ([33]; read-out: LC50): 7.87 µM
TGI [34]: 5.93 µM
TGI [35]: 3.68 µM
TGI [36]: 2.26 µM
GI50 [37]: 0.87 µM
CC50 ([37]; read-out: LC50): 7.25 µM
GI50 [38]: 2.22 µM
CC50 ([38]; read-out: LC50): 66.8 µM
TGI [39]: 15.6 µM
GI50 [40]: 1.92 µM
CC50 ([40]; read-out: LC50): > 100 µM
TGI [41]: 2.96 µM
TGI [42]: 9.31 µM
TGI [43]: >100 µM
TGI [44]: 1.92 µM
GI50 ([44]; Homo sapiens): 0.504 µM
TGI [45]: 2.35 µM
GI50 ([45]; Homo sapiens): 0.854 µM
